Consider 2 molecules from patent publication US20250018019A1, “TREATMENT OF INTERFERON DRIVEN INFLAMMATION” (The Provost, Fellows, Foundation Scholars and the other …, priority 2023, published 2025).

Where a name gives a salt, the structure may show the parent alone.

Holding throughout (type): cell-based, mouse
For assay [1], the system named is BMDMs. Description: Seahorse XF Mito Stress Test (respirometry, OCR). To be noted: BMDMs pre-treated 3 h, LPS 4 h. On the procedure:
All compounds used DMSO as a vehicle except for 4-hydroxy tamoxifen (EtOH), NAC (PBS), and AOAA for tracing experiments (Media). LPS was used at a concentration of 100 ng/ml for indicated timepoints (2, 3, 4, 6, 8, 24, 48 h). FHIN1 (10 or 20 μM), MMF (50 or 100 μM), DMF (25 μM), AOAA (5 mM), oligomycin (10 μM), CCCP (50 μM) NAC (1 mM), and IMT1 (10 μM) pre-treatments were performed for 3 h prior the addition of LPS. Cells were treated with valinomycin (10 nM) 15 mins before LPS stimulation. Anti-CD210 or IgG control (10 μg/ml) antibodies were added to cells 1 h prior to LPS stimulation. Recombinant mouse IL-10 protein (100 ng/ml) was added to cells at the same time as LPS. Cells were treated with IFN-B1 (220 ng/ml) for 3 h. Cells were treated with C-178 (1 μM) 1 h prior to LPS stimulation or transfection with 2′3′-cGAMP (1.5 μg/ml) for 4 hrs to achieve cGAS-STING activation. Cells were treated with ODN 2088 (1 μM) for 1 hr prior to LPS stimulation or transfection with CPG ODN 1826 (1.5 μg/ml) to achieve TLR9 activation. 3 different timepoints of 4-hydroxy tamoxifen (TAM) (600 nM or 2 μM) or EtOH treatment were performed-these are specified in the individual figure legends. For ‘48 h’ treatments EtOH/TAM was added on day 5 of 6 during the BMDM differentiation protocol. On day 6 they were plated with EtOH/TAM (left overnight) and treated the following day. […]

Assay [2] relates to BMDMs. Kind of assay: Immunofluorescence, Mitotracker Red and dsRNA. The conditions noted are these: LPS 4 h. The protocol:
(§1) All compounds used DMSO as a vehicle except for 4-hydroxy tamoxifen (EtOH), NAC (PBS), and AOAA for tracing experiments (Media). LPS was used at a concentration of 100 ng/ml for indicated timepoints (2, 3, 4, 6, 8, 24, 48 h). FHIN1 (10 or 20 μM), MMF (50 or 100 μM), DMF (25 μM), AOAA (5 mM), oligomycin (10 μM), CCCP (50 μM) NAC (1 mM), and IMT1 (10 μM) pre-treatments were performed for 3 h prior the addition of LPS. Cells were treated with valinomycin (10 nM) 15 mins before LPS stimulation. Anti-CD210 or IgG control (10 μg/ml) antibodies were added to cells 1 h prior to LPS stimulation. Recombinant mouse IL-10 protein (100 ng/ml) was added to cells at the same time as LPS. Cells were treated with IFN-B1 (220 ng/ml) for 3 h. Cells were treated with C-178 (1 μM) 1 h prior to LPS stimulation or transfection with 2′3′-cGAMP (1.5 μg/ml) for 4 hrs to achieve cGAS-STING activation. Cells were treated with ODN 2088 (1 μM) for 1 hr prior to LPS stimulation or transfection with CPG ODN 1826 (1.5 μg/ml) to achieve TLR9 activation. 3 different timepoints of 4-hydroxy tamoxifen (TAM) (600 nM or 2 μM) or EtOH treatment were performed-these are specified in the individual figure legends. For ‘48 h’ treatments EtOH/TAM was added on day 5 of 6 during the BMDM differentiation protocol. On day 6 they were plated with EtOH/TAM (left overnight) and treated the following day. For ‘72 h’ treatments EtOH/TAM was added on day […] of 6 during the BMDM differentiation protocol. On day 6 they were plated with EtOH/TAM (left overnight) and treated the following day. For ‘96 h’ treatments EtOH/TAM was added on day […] of 6 during the BMDM differentiation protocol. On day 6 they were plated with EtOH/TAM and treated 2 days later.
Cells were plated on 20 mm cover slips in 12-well plates. Cells were treated as required and Mitotracker Red CMXRos (100 nM, Thermo Fisher), was added to medium 30 mins prior to end of cell treatments. After 30 min incubation, cells were washed three times with warm PBS. Cells were subsequently fixed for 10 mins with 4% paraformaldehyde/PBS at 37° C. Cells were washed three times with PBS and permeabilized for 1 hour in block solution (1% BSA, 22.52 mg/ml glycine, 0.1% tween 20 in PBS). Anti-dsRNA antibody (Merck) was diluted 1/60 in block solution and incubated with cells overnight at room temperature. Cells were washed three times with PBS for 5 mins/wash. […] Images were analysed using the LAS X Life Science Microscope Software Platform (Leica). The same microscope instrument settings were used for all samples and all images were analysed using the same settings. […] Quantification of dsRNA or Mitotracker Red CMXRos signal intensity was performed using the measure function in ImageJ 1.53t (NIH).

Assay [3] has as its system BMDMs. Description: Digitonin fractionation, qPCR of mtDNA and mtRNA. On the procedure:
as §1
BMDMs were plated at 0.5×10^6 cells/well and treated as desired. After treatment, cells were washed once with room temperature PBS, before being scraped on ice into ice cold PBS and pelleted at 500×g for 5 mins at 4° C. Supernatant was removed and discarded, and the pellet was resuspended in 400 μl extraction buffer (150 mM NaCl, 50 mM HEPES pH 7.4, 25 μg/ml digitonin). Samples were then placed in a rotating mixer at 4° C. for 10 mins before centrifugation at 2000×g at 4° C. for 5 mins. The resulting supernatant constituted the cytosolic fraction, from which RNA and DNA were isolated using an AllPrep DNA/RNA Mini Kit (Qiagen). Alternatively, the cytosolic fraction was concentrated using Strataclean Resin (Agilent) and analysed by western blot. The pellet constituted a fraction containing membrane-bound organelles which was lysed in RNA lysis buffer for RNA isolation or lysed in western blot lysis buffer for analysis by western blot. To determine the presence of mtRNA and mtDNA in the cytosol, qPCR was performed using primers specific for mitochondrial D-loop on cDNA which had been reverse-transcribed from RNA isolated from the cytosolic fraction (mtRNA) and on DNA isolated from the cytosolic fraction (mtDNA). In both cases, values were normalised using a housekeeping control gene (β-actin) amplified in cDNA which had been reverse-transcribed from RNA isolated from the membrane-bound fraction.
In general terms: In qPCR the cycle at which signal appears reflects the starting amount.

On to `COC(=O)/C=C/C(=O)OC` [DMF, dimethyl fumarate], for which the “basal respiration, ATP production and maximal respiration as measured by OCR” value with BMDMs [1] is listed as “no effect”.

For the molecule `CCOC(=O)[C@@]12CCCC=C1N(Cc1ccc(-c3ccccc3)cc1)C(=O)[C@H]2CC(=O)NC` [FHIN1, Fumarate hydratase-IN-1], the “staining intensity of mitotracker RED (mtRED), MMP-dependent dye” value with BMDMs [2] (BMDMs pre-treated 3 h) is listed as “increased staining intensity”. Further, the “dsRNA accumulation (immunofluorescence)” value with BMDMs [2] (BMDMs pre-treated, relative to DMSO control) was “accumulation”. The “basal respiration, ATP production and maximal respiration as measured by OCR” value in the assay on BMDMs [1] is “impaired”. The “mtRNA in whole cell fraction” value in the assay with BMDMs [3] (BMDMs pre-treated, LPS 4 h) is listed as “not in the whole cell fraction”. Further, in the assay on BMDMs [3] (digitonin-fractionated BMDMs), the “mtDNA in cytosolic extracts (D-loop)” value is on record as “increase” and the “mtRNA in cytosolic extracts” value is “increased”.
